Assay results from EP1401829B1, “NOVEL HETEROCYCLIC ANTIBACTERIAL COMPOUNDS” (Microbiotix, Inc., priority 2001, dated 2002).
Values after ≈ are worked out from the molar mass of the structure shown. Like-named read-outs stand apart in the source and are kept apart here.

Tests used:
E. coli = assay: Minimal Inhibitory Concentration (MIC) determination, 96 well plates; type: cell-based, Escherichia coli; conditions: HBI medium, 16 to 18 hours at 37°C; for MIC: Escherichia coli, read-out: MIC (µg/ml) E. coli
Description: (§1) The following methods were used to characterize representative compounds. Minimal Inhibitory Concentration (MIC) determinations. MIC values were determined in 96 well plates, with bacterial growth monitored at OD 600 nm in 200µl following an initial bacterial seeding at approximately 1x10^5 colony forming units (CFU)/ml. Each drug is evaluated at five concentrations, with five data points at each dilution. MIC values (µg/ml) were determined against actively growing cultures in Heart-Brain Infusion (HBI) medium. Cell growth in cultures supplemented with a test compound was calculated as a percent of control at OD 600 nm after 16 to 18 hours at 37°C. This plate format conserves test compound and provides precise, quantitative data with low standard deviation determinations. Polymerase IIIC (Pol IIIC) assay. DNA polymerase activity (or inhibition thereof) was measured in a 96-well plate format. B. subtilis Pol IIIC was isolated as described by Hammond and Brown (Protein Expr. Purif., 3: 65-70 (1992)). Each 25 µl assay contained 30 mM Tris, pH 7.5, 10 mM magnesium acetate, 4 mM dithiothreitol, 20% glycerol, with 25 µM dATP, dCTP, dGTP and 10 µM dTTP (^3H-labelled at 1.44 Ci/mmole) and 0.4 mg/ml activated calf thymus DNA as substrates, as described previously (see Barnes et al, op. cit). Assays were initiated by the addition of 0.025 to 0.06 units of enzyme 1 unit is the amount required to incorporate 250 pmoles of [^3H] dTMP in a standard assay), incubated for 10 minutes at 30°C and terminated by the addition of 200 µl of cold 10% trichloroacetic acid (TCA),10 mM sodium pyrophosphate. Precipitated labeled DNA was collected on glass fiber filter plates, washed, dried, and counted in a liquid scintillation counter. Determination of Ki values. DNA polymerase activity was measured in a 96-well plate format in the absence of dGTP or dATP, depending on the structure of the test compound. Each 25 µl assay contained 30 mM Tris, pH 7.5, 10 mM magnesium acetate, 4 mM dithiothreitol, 20% glycerol, with 25 µM dATP, dCTP, and 10 µM dTTP (^3H-labelled at 1.44 Ci/mmole) and 0.4 mg/ml activated calf thymus DNA as substrates, as described previously. To each well were added 2 µl of compound solution to give final concentrations ranging from 20 - 0.027 µg/ml in the assay. Assays were initiated by the addition of 0.025 to 0.06 units of enzyme (1 unit is the amount required to incorporate 250 pmoles of [^3H] dTMP in a standard assay), incubated for 10 minutes at 30 °C and terminated by the addition of 200 µl of cold 10% trichloroacetic acid, 10 mM sodium pyrophosphate. Precipitated labeled DNA was collected on glass fiber filter plates, washed, dried, and counted in a liquid scintillation counter. Ki is the concentration of test compound that reduces the control polymerase IIIC activity by 50 percent.
(§2) MIC values were determined for the Gram positive bacteria Bacillus subtilis, Staphylococcus aureus (two strains), Enterococcus fecalis, Enterococcus fecium, and for the Gram negative bacterium Escherichia coli.

B. subtilis = assay: as above; type: cell-based, Bacillus subtilis; conditions: for MIC: Bacillus subtilis, read-out: MIC (µg/ml) B. subtilis
Description: as §1, with “This plate format conserves test compound and provides precise, quantitative data with low standard deviation determinations.” left out, “To each well were added 2 µl of compound solution to give final concentrations ranging from 20 - 0.027 µg/ml in the assay.” left out
as §2

S. aureus = assay: as above; type: cell-based, Staphylococcus aureus; conditions: for MIC: Staphylococcus aureus, read-out: MIC (µg/ml) S. aureus
Description: as §1, §2

E. fecalis = assay: as above; type: cell-based, Enterococcus fecalis; conditions: for MIC: Enterococcus, read-out: MIC (µg/ml) E. fecalis
Description: as §1, with “This plate format conserves test compound and provides precise, quantitative data with low standard deviation determinations.” left out, “To each well were added 2 µl of compound solution to give final concentrations ranging from 20 - 0.027 µg/ml in the assay.” left out
as §2

S.aureus (Smith) = assay: as above; type: cell-based, Staphylococcus aureus; conditions: for MIC: Staphylococcus aureus, read-out: MIC (µg/ml) S.aureus (Smith)
Description: as §1, with “This plate format conserves test compound and provides precise, quantitative data with low standard deviation determinations.” left out, “To each well were added 2 µl of compound solution to give final concentrations ranging from 20 - 0.027 µg/ml in the assay.” left out
as §2

B. subtilis Pol IIIC = target: T1, B. subtilis Pol IIIC (Bacillus subtilis, UniProt P13267); assay: Polymerase IIIC (Pol IIIC) assay, determination of Ki values; type: biochemical; conditions: assay in absence of dGTP or dATP, Ki is the concentration that reduces control polymerase IIIC activity by 50 percent
T1 construct: made in house
T1 sequence (P13267 whole entry): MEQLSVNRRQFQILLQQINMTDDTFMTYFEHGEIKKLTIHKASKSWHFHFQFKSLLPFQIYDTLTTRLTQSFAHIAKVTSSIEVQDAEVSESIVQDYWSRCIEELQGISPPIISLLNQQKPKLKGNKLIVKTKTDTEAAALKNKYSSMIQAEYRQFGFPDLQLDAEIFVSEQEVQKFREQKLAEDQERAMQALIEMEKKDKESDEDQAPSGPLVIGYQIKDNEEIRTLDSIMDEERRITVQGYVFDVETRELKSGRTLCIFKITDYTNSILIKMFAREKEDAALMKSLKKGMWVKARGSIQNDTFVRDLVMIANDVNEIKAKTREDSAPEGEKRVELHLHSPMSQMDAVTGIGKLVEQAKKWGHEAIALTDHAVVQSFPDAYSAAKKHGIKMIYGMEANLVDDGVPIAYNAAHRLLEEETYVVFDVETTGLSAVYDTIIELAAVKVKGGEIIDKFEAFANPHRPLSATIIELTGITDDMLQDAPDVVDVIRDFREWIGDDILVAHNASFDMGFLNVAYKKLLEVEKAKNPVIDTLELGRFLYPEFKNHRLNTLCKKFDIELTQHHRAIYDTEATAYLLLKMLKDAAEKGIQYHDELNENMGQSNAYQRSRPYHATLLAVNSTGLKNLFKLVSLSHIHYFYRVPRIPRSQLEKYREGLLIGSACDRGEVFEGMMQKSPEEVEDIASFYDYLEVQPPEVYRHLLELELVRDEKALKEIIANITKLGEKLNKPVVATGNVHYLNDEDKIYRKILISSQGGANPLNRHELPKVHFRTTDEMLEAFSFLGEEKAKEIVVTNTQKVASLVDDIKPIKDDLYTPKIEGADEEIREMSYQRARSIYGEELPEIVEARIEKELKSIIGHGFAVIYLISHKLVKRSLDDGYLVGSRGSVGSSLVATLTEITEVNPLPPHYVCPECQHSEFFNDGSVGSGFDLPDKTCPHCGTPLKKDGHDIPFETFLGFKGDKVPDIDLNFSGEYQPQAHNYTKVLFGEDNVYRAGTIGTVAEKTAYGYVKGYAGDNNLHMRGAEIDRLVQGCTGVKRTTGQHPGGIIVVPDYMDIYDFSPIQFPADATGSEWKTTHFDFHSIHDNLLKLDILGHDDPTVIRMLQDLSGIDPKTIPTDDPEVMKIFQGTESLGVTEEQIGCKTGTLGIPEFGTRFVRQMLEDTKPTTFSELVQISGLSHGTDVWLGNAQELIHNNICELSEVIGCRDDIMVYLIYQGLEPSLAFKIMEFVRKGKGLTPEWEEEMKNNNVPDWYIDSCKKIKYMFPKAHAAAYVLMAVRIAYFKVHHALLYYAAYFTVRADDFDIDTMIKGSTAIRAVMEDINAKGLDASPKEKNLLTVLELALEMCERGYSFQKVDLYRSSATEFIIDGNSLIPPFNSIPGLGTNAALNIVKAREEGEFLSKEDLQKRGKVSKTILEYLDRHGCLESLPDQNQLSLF
Description: as §1, with “This plate format conserves test compound and provides precise, quantitative data with low standard deviation determinations.” left out, “To each well were added 2 µl of compound solution to give final concentrations ranging from 20 - 0.027 µg/ml in the assay.” left out

E. fecium = assay: Minimal Inhibitory Concentration (MIC) determination, 96 well plates; type: cell-based, Enterococcus fecium; conditions: for MIC: Enterococcus, read-out: MIC (µg/ml) E. fecium
Description: as §1, with “This plate format conserves test compound and provides precise, quantitative data with low standard deviation determinations.” left out, “To each well were added 2 µl of compound solution to give final concentrations ranging from 20 - 0.027 µg/ml in the assay.” left out
as §2

[1] = HBI medium, 16 to 18 hours at 37°C

Compound	MIC (µg/ml) E. coli (E. coli) [µg/mL]	MIC (µg/ml) B. subtilis (B. subtilis; [1]) [µg/mL]	MIC (µg/ml) S. aureus (S. aureus; [1]) [µg/mL]	MIC (µg/ml) E. fecalis (E. fecalis; [1]) [µg/mL]	MIC (µg/ml) S.aureus (Smith) (S.aureus (Smith); [1]) [µg/mL]	Ki (B. subtilis Pol IIIC; read-out: Ki (µM) Pol IIIC) [µM]	MIC (µg/ml) E. fecium (E. fecium; [1]) [µg/mL]	MIC (E. coli) [µg/mL]	MIC (B. subtilis; [1]) [µg/mL]	MIC (S. aureus; [1]) [µg/mL]	MIC (E. fecalis; [1]) [µg/mL]	MIC (S.aureus (Smith); [1]) [µg/mL]	Ki (B. subtilis Pol IIIC; Ki (µM) Pol IIIC) [µM]	MIC (E. fecium; [1]) [µg/mL]	MIC (B. subtilis) [µg/mL]	MIC (S. aureus) [µg/mL]	MIC (E. fecalis) [µg/mL]	MIC (S.aureus (Smith)) [µg/mL]	MIC (E. fecium) [µg/mL]
3-{5-[1-(1-ethyl-3-carboxy-4-oxo-6,8-difluoro-7-quinolyl)-3-(1,3-diazabicyclononyl)]pentyl}-6-(3-ethyl-4-methylanilino)uracil [Compound 88]	>20	0.625	1.25	2.5	1.25	0.024	5	–	–	–	–	–	–	–	–	–	–	–	–
CCc1cc(Nc2cc(=O)n(CCCCN3CCN(c4cc5c(cc4F)c(=O)c(C(=O)O)cn5CC)CC3)c(=O)[nH]2)ccc1C [Compound 1, 3-{4-[1-(1-ethyl-3-carboxy-4-oxo-6-fluoro-7-quinolyl)-4-piperazinyl]butyl}-6-(3-ethyl-4-methylanilino)uracil]	–	–	–	–	–	–	–	> 20	0.156 (≈ 0.252 µM)	0.625 (≈ 1.01 µM)	1.25 (≈ 2.02 µM)	0.625 (≈ 1.01 µM)	0.024	1.25 (≈ 2.02 µM)	–	–	–	–	–
CCc1cc(Nc2cc(=O)n(CCCCCCCN3CCN(c4cc5c(cc4F)c(=O)c(C(=O)O)cn5C4CC4)CC3)c(=O)[nH]2)ccc1C [Compound 8, 3-{7-[1-(1-cyclopropyl-3-carboxy-4-oxo-6-fluoro-7-quinolyl)-4-piperazinyl]heptyl}-6-(3-ethyl-4-methylanilino)uracil]	–	–	–	–	–	–	–	40 (≈ 59.5 µM)	0.313 (≈ 0.465 µM)	1.25 (≈ 1.86 µM)	10 (≈ 14.9 µM)	0.625 (≈ 0.929 µM)	0.013	> 80	–	–	–	–	–
CCc1cc(Nc2cc(=O)n(CCOCCN3CCN(c4cc5c(cc4F)c(=O)c(C(=O)O)cn5C4CC4)CC3)c(=O)[nH]2)ccc1C [Compound 11, 3-{2-[1-(1-cyclopropyl-3-carboxy-4-oxo-6-fluoro-7-quinolyl)-4-piperazinyl]ethoxyethyl}-6-(3-ethyl-4-methylanilino)uracil]	–	–	–	–	–	–	–	> 80	1.25 (≈ 1.93 µM)	5 (≈ 7.73 µM)	10 (≈ 15.5 µM)	2.5 (≈ 3.87 µM)	0.03	5 (≈ 7.73 µM)	–	–	–	–	–
CCc1cc(Nc2cc(=O)n(CCCCCN3CCN(c4cc5c(cc4F)c(=O)c(C(=O)O)cn5C4CC4)CC3)c(=O)[nH]2)ccc1C [Compound 15, 3-{5-[1-(1-cyclopropyl-3-carboxy-4-oxo-6-fluoro-7-quinolyl)-4-piperazinyl]pentyl}-6-(3-ethyl-4-methylanilino)uracil]	–	–	–	–	–	–	–	5 (≈ 7.75 µM)	0.156 (≈ 0.242 µM)	0.625 (≈ 0.969 µM)	0.625 (≈ 0.969 µM)	0.313 (≈ 0.485 µM)	0.03	1.25 (≈ 1.94 µM)	–	–	–	–	–
Cc1ccc(Nc2cc(=O)n(CCCCN3CCN(c4cc5c(cc4F)c(=O)c(C(=O)O)cn5C4CC4)CC3)c(=O)[nH]2)cc1Cl [Compound 64, 3-{4-[1-(1-cyclopropyl-3-carboxy-4-oxo-6-fluoro-7-quinolyl)-4-piperazinyl]butyl}-6-(3-chloro-4-methylanilino)uracil]	–	–	–	–	–	–	–	7.5 (≈ 11.8 µM)	0.313 (≈ 0.491 µM)	1.25 (≈ 1.96 µM)	1.87 (≈ 2.94 µM)	0.625 (≈ 0.981 µM)	0.055	3.7 (≈ 5.81 µM)	–	–	–	–	–
Cc1ccc(Nc2cc(=O)n(CCCCN3CCN(c4cc5c(cc4F)c(=O)c(C(=O)O)cn5C4CC4)CC3)c(=O)[nH]2)cc1C [Compound 65, 3-{4-[1-(1-cyclopropyl-3-carboxy-4-oxo-6-fluoro-7-quinolyl)-4-piperazinyl]butyl}-6-(3,4-dimethylanilino)uracil]	–	–	–	–	–	–	–	10 (≈ 16.2 µM)	0.23 (≈ 0.373 µM)	0.95 (≈ 1.54 µM)	1.87 (≈ 3.03 µM)	0.46 (≈ 0.746 µM)	0.095	1.87 (≈ 3.03 µM)	–	–	–	–	–
CCc1cccc(Nc2cc(=O)n(CCCCN3CCN(c4cc5c(cc4F)c(=O)c(C(=O)O)cn5C4CC4)CC3)c(=O)[nH]2)c1 [Compound 66, 3-{4-[1-(1-cyclopropyl-3-carboxy-4-oxo-6-fluoro-7-quinolyl)-4-piperazinyl]butyl}-6-(3-ethylanilino)uracil]	–	–	–	–	–	–	–	6.1 (≈ 9.89 µM)	0.313 (≈ 0.508 µM)	0.95 (≈ 1.54 µM)	1.25 (≈ 2.03 µM)	0.625 (≈ 1.01 µM)	0.26	3.7 (≈ 6 µM)	–	–	–	–	–
O=C(O)c1cn(C2CC2)c2cc(N3CCN(CCCCn4c(=O)cc(Nc5ccc6c(c5)CCC6)[nH]c4=O)CC3)c(F)cc2c1=O [Compound 67, 3-{4-[1-(1-cyclopropyl-3-carboxy-4-oxo-6-fluoro-7-quinolyl)-4-piperazinyl]butyl}-6-(5-indanylamino)uracil]	–	–	–	–	–	–	–	10 (≈ 15.9 µM)	0.23 (≈ 0.366 µM)	0.625 (≈ 0.994 µM)	1.25 (≈ 1.99 µM)	0.313 (≈ 0.498 µM)	0.034	2.5 (≈ 3.98 µM)	–	–	–	–	–
CCc1cc(Nc2ccc(NC(=O)N3CCN(c4cc5c(cc4F)c(=O)c(C(=O)O)cn5CC)CC3)c(=O)[nH]2)ccc1C [Compound 77, 3-{[1-(1-ethyl-3-carboxy-4-oxo-6-fluoro-7-quinolyl)-4-piperazinyl]carboxamido}-6-(3-ethyl-4-methylanilino)-2-pyridone]	–	–	–	–	–	–	–	> 80	–	–	–	–	–	–	5 (≈ 8.49 µM)	2.5 (≈ 4.25 µM)	> 80	2.5 (≈ 4.25 µM)	> 80
